Where two headings read alike, the source gives them in different places.
Experiments:
human PRC2 complex = human PRC2 complex (Homo sapiens, UniProt O75530+Q15022+Q15910, DEL183-210)
Method: All anisotropy titrations were performed at 20 °C using a Jasco FP-8500 fluorimeter.
affinity of PRC2 for H3 peptide.
(a) Direct titration of PRC2 into FAM-K27M (0.4 μM) in the presence
absence of co-factor (white circles).
(320 μM) with unlabelled peptides.
titration of PRC2 into FAM-
The titration in the absence of repressive

PRC2 [1] = conditions: repressive peptides; cited from earlier work
PRC2 [2] = conditions: kinetic studies, cited from earlier work
From the text: In their recent analysis, Brown et al.[19] quantified the inhibitory affect of a series of peptide constructs varying in the side chain (both natural and synthetic) at position 27.

[3] = molecular target: human PRC2 core complex (EZH2^N 1-385 lacking 183-210, EZH2^C 421-746, EED 77-441, SUZ12 535-685) (human) (UniProt Q15910); assay: fluorescence polarisation; anisotropy displacement titration: unlabelled peptide added to FAM-H3K27M (0.4 μM) and PRC2 ([…]) with SAM (320 μM); 20 °C; 25 mM Hepes pH 7.25, 25 mM NaCl, 1 mM TCEP, 0.01% Brij-35
Chain of human PRC2 core complex (EZH2^N 1-385 lacking 183-210, EZH2^C 421-746, EED 77-441, SUZ12 535-685) (human) (Q15910 other isoform, or with tags, fused parts or gaps, chain 1 of 4): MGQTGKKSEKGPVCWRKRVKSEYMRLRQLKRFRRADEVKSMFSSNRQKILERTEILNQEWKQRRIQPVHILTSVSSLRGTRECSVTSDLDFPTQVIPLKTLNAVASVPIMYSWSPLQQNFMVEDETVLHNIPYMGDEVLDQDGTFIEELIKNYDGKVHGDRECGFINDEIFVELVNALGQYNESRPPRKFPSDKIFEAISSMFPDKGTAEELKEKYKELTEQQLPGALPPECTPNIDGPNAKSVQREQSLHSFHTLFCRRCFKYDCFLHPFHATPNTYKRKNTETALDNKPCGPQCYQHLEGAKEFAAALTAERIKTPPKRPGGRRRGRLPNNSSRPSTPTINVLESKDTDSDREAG
Chain of human PRC2 core complex (EZH2^N 1-385 lacking 183-210, EZH2^C 421-746, EED 77-441, SUZ12 535-685) (human) (Q15910 421-746, chain 2 of 4): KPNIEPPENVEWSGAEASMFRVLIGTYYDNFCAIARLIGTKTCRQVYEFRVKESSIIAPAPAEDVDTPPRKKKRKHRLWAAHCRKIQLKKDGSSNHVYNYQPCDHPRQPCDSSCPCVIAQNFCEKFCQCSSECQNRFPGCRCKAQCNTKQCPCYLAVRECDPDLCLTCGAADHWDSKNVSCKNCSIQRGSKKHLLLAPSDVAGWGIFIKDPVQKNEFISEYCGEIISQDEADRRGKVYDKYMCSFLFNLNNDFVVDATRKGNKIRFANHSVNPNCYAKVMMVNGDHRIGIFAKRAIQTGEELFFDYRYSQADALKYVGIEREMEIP
Chain of human PRC2 core complex (EZH2^N 1-385 lacking 183-210, EZH2^C 421-746, EED 77-441, SUZ12 535-685) (human) (O75530 77-441, chain 3 of 4, further chain): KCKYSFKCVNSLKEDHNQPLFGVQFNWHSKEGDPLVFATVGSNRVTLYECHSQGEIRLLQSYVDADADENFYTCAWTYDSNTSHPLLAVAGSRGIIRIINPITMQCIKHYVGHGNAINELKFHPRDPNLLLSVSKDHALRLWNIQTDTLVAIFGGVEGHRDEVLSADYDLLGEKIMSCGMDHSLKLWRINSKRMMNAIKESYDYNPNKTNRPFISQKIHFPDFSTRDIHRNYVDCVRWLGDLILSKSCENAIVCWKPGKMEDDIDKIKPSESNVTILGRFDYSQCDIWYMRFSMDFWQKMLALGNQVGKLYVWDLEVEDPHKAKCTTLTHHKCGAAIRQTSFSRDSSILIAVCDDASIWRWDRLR
Chain of human PRC2 core complex (EZH2^N 1-385 lacking 183-210, EZH2^C 421-746, EED 77-441, SUZ12 535-685) (human) (Q15022 535-685, chain 4 of 4, further chain): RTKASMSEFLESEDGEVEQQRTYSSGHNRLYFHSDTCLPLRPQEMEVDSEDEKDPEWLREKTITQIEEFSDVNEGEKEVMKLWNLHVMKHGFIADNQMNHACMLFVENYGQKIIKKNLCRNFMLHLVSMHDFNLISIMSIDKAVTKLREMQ

Chain of human PRC2 complex (Q15910 421-746 limits assumed, stated change not applied): as the sequence (Q15910 421-746, chain 2 of 4) above
Chain of human PRC2 complex (Q15910 with tags, fused parts or gaps DEL183-210 limits assumed): as the sequence (Q15910 other isoform, or with tags, fused parts or gaps, chain 1 of 4) above
Chain of human PRC2 complex (O75530 77-441 partner limits assumed): as the sequence (O75530 77-441, chain 3 of 4, further chain) above
Chain of human PRC2 complex (Q15022 535-685 partner limits assumed): as the sequence (Q15022 535-685, chain 4 of 4, further chain) above

Compound: Nc1ncnc2c1ncn2[C@@H]1O[C@H](CSCC[C@H](N)C(=O)O)[C@@H](O)[C@H]1O [SAH]
- binding of cofactor product (human PRC2 complex; relative to SAM): binds much weaker

Compound: C[S+](CC[C@H](N)C(=O)[O-])C[C@H]1O[C@@H](n2cnc3c(N)ncnc32)[C@H](O)[C@@H]1O (stereo partly drawn) [SAM, S-adenosylmethionine]
- Kd (human PRC2 complex): 47 ± 9 µM

Compound: Jarid2 K116me3: trimethylated K116 Jarid2 peptide (residues 111–121), binds EED and activates PRC2
- activation of PRC2 (PRC2 [1]): strongest activation of PRC2

Compound: Norleucine
- relative inhibition of PRC2 by residue at position 27 (words) (PRC2 [2]): even better inhibitor than methionine
- relative inhibition of PRC2 by residue at position 27 (words) (PRC2 [2]; listed as norleucine): strong inhibition

Compound: unlabelled H3R26AK27M peptide
- Kd [3]: 73 µM

— publication PMC4853476 (Nature Communications, 2016)
